Reference: patent US9527830B2 (Merck Sharp & Dohme Corp., priority 2011, dated 2016)

Molecular target: T1, hROMK1 (Kir1.1) (Homo sapiens, UniProt P48048)
T1 construct: expressed in transfected cells
T1 sequence (P48048 1-391): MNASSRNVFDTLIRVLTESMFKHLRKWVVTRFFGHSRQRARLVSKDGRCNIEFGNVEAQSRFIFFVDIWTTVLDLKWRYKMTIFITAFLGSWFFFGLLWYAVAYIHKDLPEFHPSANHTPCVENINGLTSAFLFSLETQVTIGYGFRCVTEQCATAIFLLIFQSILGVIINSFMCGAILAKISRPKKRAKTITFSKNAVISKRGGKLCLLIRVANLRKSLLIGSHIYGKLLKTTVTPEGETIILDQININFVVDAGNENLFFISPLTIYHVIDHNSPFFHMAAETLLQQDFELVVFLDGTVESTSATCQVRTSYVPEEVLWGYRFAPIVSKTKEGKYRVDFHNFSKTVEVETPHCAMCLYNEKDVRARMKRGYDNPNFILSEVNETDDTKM
Assay: ^86Rb^+ Efflux Assay
Assay type: cell-based
Conditions: CHO-DHFR- cells stably expressing hROMK1; potency ranges
Procedure: Several assays may be used to measure functional inhibition of the ROMK channel by compounds of the instant invention. One primary assay that can be used is a functional ^86Rb^+ efflux assay that measures the ability of ROMK to permeate ^86Rb^+, in the absence or presence of test compound. Under control conditions, cells loaded with ^86Rb^+ and incubated in Rb^+-free medium display a time-dependent efflux of the isotope, the rate of which depends on number of functional channels. When cells are incubated in the presence of a channel inhibitor, efflux of ^86Rb^+ is prevented in a concentration-dependent manner, and IC50 values of inhibition by compounds can be accurately determined. This assay has been established with cell lines expressing either human, rat or dog ROMK channels, and can operate in 96- or 384-well format. Importantly, the human, rat, and dog ^86Rb^+ efflux assays can be carried out in the presence of up to 100% serum allowing, therefore, an accurate estimation of the effect of protein binding on the inhibitory activity of compounds of interest. Another ROMK functional assay makes use of the ability of thallium to permeate through open ROMK channels and increase the fluorescence of a dye previously loaded into the cells. Under control conditions, cells loaded with dye and exposed to thallium-containing medium display a time-dependent increase in fluorescence, the rate of which depends on number of functional channels. When cells are incubated in the presence of a channel inhibitor, the increase in fluorescence is attenuated in a concentration-dependent manner, and IC50 values of inhibition by compounds can be accurately determined. This assay has been established with cell lines expressing either human, or rat ROMK channels, and operates in 384-well format. Another assay for evaluation of the compounds of the instant invention and for evaluation of mechanism of action of compounds of Formula I relies on the measurement of the electrical current that is generated as potassium permeates through the channel. For these electrophysiological experiments, three different platforms, IonWorks, QPatch, or manual patch clamp, are used, depending on the experimental protocol under consideration. IonWorks operates in a 384-well format and allows accurate determination of IC50 values for inhibitors.
CHO-DHFR-cells stably expressing hROMK1 (Kir1.1) were grown at 37° C. in a 10% CO2 humidified incubator in Iscove's Modified Dulbecco's Medium (Gibco 12440) supplemented with HT Supplement, Penicillin/Streptomycin/Glutamine, G418 (500 μg/ml) and 10% FBS. Cells were seeded in Sterile and Tissue Culture Treated Packard CulturPlate White Opaque Microplates at a concentration of 5.0E5-7.0E5 cells/ml—PerkinElmer 6005680 (96-well); Corning 3707 (384 well) in complete media containing 1.5 μCi/ml Rubidium-86. Cells were incubated in 37° C.-10% CO2 incubator overnight. On the day of the experiment, the media was removed and cells washed with low K assay buffer. ^86Rb^+ efflux was initiated after addition of assay buffer±test compound followed by 35 min incubation at room temperature. ROMK-sensitive component of efflux was defined in the presence of 10 mM BaCl2. Assay buffer was removed and transferred to a plate and cells were solubilized in the presence of SDS. Radioactivity associated with assay and cell plate was determined.
• 1. Removed cell media and washed cells with low K assay buffer (126.9 mM NaCl, 4.6 mM KCl, 2 mM CaCl2, 1 mM MgCl2, 10 mM Hepes/NaOH; pH 7.4) • 200 μl for 96-well plate; 70 μl for 384-well plate • 2. Added assay buffer (121.5 mM NaCl, 10 mM KCl, 2 mM CaCl2, 1 mM MgCl2, 10 mM Hepes/NaOH; pH 7.4)±test compound to cells • 100 μl for 96-well plate; 50 μl for 384-well plate • 3. Incubated at ambient temperature (22-24° C.) for 35 min • 4.

IC50 [nM] | Structure (SMILES)
≤ 500 | N#Cc1ccc(CC(=O)N2CCC(CCc3ccc4c(c3)COC4=O)CC2)cc1Br [Example 64, 2-Bromo-4-[2-oxo-2-[4-[2-(1-oxo-3H-isobenzofuran-5-yl)ethyl]-1-piperidyl]ethyl]benzonitrile]
≤ 500 | CN(C)C1(CCc2ccc(F)c(C#N)c2)CCN(C(=O)Cc2ccc(-n3cnnn3)cc2)CC1 [Example 82, 5-{2-[4-(Dimethylamino)-1-{[4-(1H-tetrazol-1-yl)phenyl]acetyl}piperidin-4-yl]ethyl}-2-fluorobenzonitrile]
≤ 200 | Cc1cc(/C=C/C2CCN(CCc3ccc4c(c3)COC4=O)CC2)ccc1C#N [Example 83]
≤ 500 | CCOC(=O)C1(CCc2ccc(F)c(C#N)c2)CCN(C(=O)Cc2ccc(-n3cnnn3)cc2)CC1 [Example 15, Ethyl 4-[2-(3-cyano-4-fluorophenyl)ethyl]-1-{[4-(1H-tetrazol-1-yl)phenyl]acetyl}piperidine-4-carboxylate]
≤ 500 | N#Cc1cc(CCC2(O)CCN(C(=O)Cc3ccc(-n4cnnn4)cc3)CC2)ccc1F [Example 13, 2-Fluoro-5-[2-(4-hydroxy-1-{[4-(1H-tetrazol-1-yl)phenyl]acetyl}piperidin-4-yl)ethyl]benzonitrile]
≤ 500 | N#Cc1c(F)ccc(C#CC2(O)CCN(C(=O)Cc3ccc(-n4cnnn4)cc3)CC2)c1F [Example 33, 2,6-Difluoro-3-[(4-hydroxy-1-{[4-(1H-tetrazol-1-yl)phenyl]acetyl}piperidin-4-yl)ethynyl]benzonitrile]
≤ 500 | N#Cc1c(F)ccc(CCC2(O)CCN(C(=O)Cc3ccc(-n4cnnn4)cc3)CC2)c1Cl [Example 40, 2-Chloro-6-fluoro-3-[2-(4-hydroxy-1-{[4-(1H-tetrazol-1-yl)phenyl]acetyl}piperidin-4-yl)ethyl]benzonitrile]
≤ 500 | Cc1cc(-n2cnnn2)ccc1CC(=O)N1CCC(O)(CCc2ccc(F)c(C#N)c2)CC1 [Example 18, 2-Fluoro-5-[2-(4-hydroxy-1-{[2-methyl-4-(1H-tetrazol-1-yl)phenyl]acetyl}piperidin-4-yl)ethyl]benzonitrile]
≤ 500 | N#Cc1cc(CCC2(C(F)F)CCN(C(=O)Cc3ccc(-n4cnnn4)cc3)CC2)ccc1F [Example 27, 5-{2-[4-(Difluoromethyl)-1-{[4-(1H-tetrazol-1-yl)phenyl]acetyl}piperidin-4-yl]ethyl}-2-fluorobenzonitrile]
≤ 500 | N#Cc1c(F)ccc(C#CC2(O)CCN(C(=O)Cc3ccc(-n4cnnn4)cc3)CC2)c1Cl [Example 39, 2-Chloro-6-fluoro-3-[(4-hydroxy-1-{[4-(1H-tetrazol-1-yl)phenyl]acetyl}piperidin-4-yl)ethynyl]benzonitrile]
≤ 500 | N#Cc1cc(CCC2(O)CCN(C(=O)Cc3ccc(-n4cnnn4)cc3C(F)(F)F)CC2)ccc1F [Example 31, 2-Fluoro-5-[2-(4-hydroxy-1-{[4-(1H-tetrazol-1-yl)-2-(trifluoromethyl)phenyl]acetyl}piperidin-4-yl)ethyl]benzonitrile]
≤ 500 | N#Cc1cc(/C=C/C2CCN(C(=O)Cc3ccc4c(c3)COC4=O)CC2)ccc1F [Example 48, 2-Fluoro-5-[(E)-2-{1-[(1-oxo-1,3-dihydro-2-benzofuran-5-yl)acetyl]piperidin-4-yl}ethenyl]benzonitrile]
≤ 200 | Cc1c(/C=C/C2CCN(C(=O)Cc3ccc(-n4cnnn4)cc3)CC2)ccc2c1COC2=O [Example 41, 4-Methyl-5-[(E)-2-(1-{[4-(1H-tetrazol-1-yl)phenyl]acetyl}piperidin-4-yl)ethenyl]-2-benzofuran-1(3H)-one]
≤ 200 | COc1cc(C#N)c(F)cc1CC(=O)N1CCC(CCc2ccc3c(c2)COC3=O)CC1 [Example 70, 2-Fluoro-5-methoxy-4-(2-oxo-2-{4-[2-(1-oxo-1,3-dihydro-2-benzofuran-5-yl)ethyl]piperidin-1-yl}ethyl)benzonitrile]
≤ 500 | N#Cc1cc(/C=C/C2(O)CCN(C(=O)Cc3ccc(-n4cnnn4)cc3)CC2)ccc1F [Example 29, 2-Fluoro-5-[(E)-2-(4-hydroxy-1-{[4-(1H-tetrazol-1-yl)phenyl]acetyl}piperidin-4-yl)ethenyl]benzonitrile]
≤ 500 | N#Cc1cc(CCC2(CO)CCN(C(=O)Cc3ccc(-n4cnnn4)cc3)CC2)ccc1F [Example 26, 2-Fluoro-5-{2-[4-(hydroxymethyl)-1-{[4-(1H-tetrazol-1-yl)phenyl]acetyl}piperidin-4-yl]ethyl}benzonitrile]
≤ 500 | N#Cc1ccc(/C=C/C2CCN(CCc3ccc4c(c3)COC4=O)CC2)cc1 [Example 84, 4-[(E)-2-{1-[2-(1-Oxo-1,3-dihydro-2-benzofuran-5-yl)ethyl]piperidin-4-yl}ethenyl]benzonitrile]
≤ 500 | COc1cc(CC(=O)N2CCC(CCc3ccc4c(c3)COC4=O)CC2)c(F)cc1C#N [Example 56, 5-Fluoro-2-methoxy-4-(2-oxo-2-{4-[2-(1-oxo-1,3-dihydro-2-benzofuran-5-yl)ethyl]piperidin-1-yl}ethyl)benzonitrile]
≤ 200 | O=C1OCc2c1ccc(CCC1CCN(C(=O)Cc3ccc(-n4cnnn4)cc3)CC1)c2Br [Example 59, 4-Bromo-5-[2-(1-{[4-(1H-tetrazol-1-yl)phenyl]acetyl}piperidin-4-yl)ethyl]-2-benzofuran-1(3H)-one]
≤ 500 | N#Cc1cc(CCC2(F)CCN(C(=O)Cc3ccc(-n4cnnn4)cc3)CC2)ccc1F [Example 14, 2-Fluoro-5-[2-(4-fluoro-1-{[4-(1H-tetrazol-1-yl)phenyl]acetyl}piperidin-4-yl)ethyl]benzonitrile]
≤ 500 | N#Cc1c(F)ccc(CCC2(O)CCN(C(=O)Cc3ccc(-n4cnnn4)cc3)CC2)c1F [Example 34, 2,6-Difluoro-3-[2-(4-hydroxy-1-{[4-(1H-tetrazol-1-yl)phenyl]acetyl}piperidin-4-yl)ethyl]benzonitrile]
≤ 200 | O=C(Cc1ccc(-n2cnnn2)cc1)N1CCC(CCc2ccc([N+](=O)[O-])cc2)CC1 [Example 4, 2-(4-(1H-Tetrazol-1-yl)phenyl)-1-(4-(4-nitrophenethyl)piperidin-1-yl)ethanone]
≤ 200 | CC1Cc2cc(/C=C/C3CCN(C(=O)Cc4ccc(-n5cnnn5)cc4)CC3)ccc2C(=O)O1 (centres unmarked) [Example 79, 3-Methyl-6-[(E)-2-(1-{[4-(1H-tetrazol-1-yl)phenyl]acetyl}piperidin-4-yl)ethenyl]-3,4-dihydro-1H-isochromen-1-one]
≤ 500 | Cc1c(CCC2(O)CCN(C(=O)Cc3ccc(-n4cnnn4)cc3)CC2)ccc(F)c1C#N [Example 37, 6-Fluoro-3-[2-(4-hydroxy-1-{[4-(1H-tetrazol-1-yl)phenyl]acetyl}piperidin-4-yl)ethyl]-2-methylbenzonitrile]

Structure (SMILES) | IC50 [nM]
COC(=O)C1(CCc2ccc([N+](=O)[O-])cc2)CCN(CCc2ccc([N+](=O)[O-])cc2)CC1 [Example 1, Methyl 1,4-bis[2-(4-nitrophenyl)ethyl]piperidine-4-carboxylate] | ≤ 200
O=[N+]([O-])c1ccc(CCC2CCN(CCc3ccc([N+](=O)[O-])cc3)CC2)cc1 [Example 3, 1,4-bis[2-(4-Nitrophenyl)ethyl]piperidine] | ≤ 200
